From ChEMBL document CHEMBL1122597, “Palladium (II)-catalyzed olefin-coupling reactions of kainic acid: effects of substitution on the isopropenyl group on receptor binding” (J Med Chem, 1984)

Organism: Rattus norvegicus
Assay: Concentration that produces 50% displacement of [3H]-kainic acid from nerve cell membrane receptor sites
Assay type: functional

| SMILES | IC50 [nM] |
| --- | --- |
| CC(C)[C@H]1CN[C@H](C(=O)O)[C@H]1CC(=O)O [DIHYDROKAINATE] | 646 |
| C/C(=C\c1cccc([N+](=O)[O-])c1)C1CN[C@H](C(=O)O)C1CC(=O)O (some centres undefined) | 79.4 |
| C=C(C)[C@H]1CN[C@H](C(=O)O)[C@H]1CC(=O)O [KAINIC ACID] | 17.8 |
| C/C(=C/c1cccc([N+](=O)[O-])c1)C1CN[C@H](C(=O)O)C1CC(=O)O (some centres undefined) | 417 |
